Laboratory results from patent US20190083521A1, “COMBINATION THERAPY FOR TREATING CANCER” (Epizyme, Inc., priority 2014, published 2019).

Columns and labels:
Type in all cases: cell-based, human
MOLM-13 cells = assay: Example 6 combination screen: 300 nM EPZ-5676 pre-treatment, second compound 72 h, ATPLite, IC50 shift; settings: 300 nM EPZ-5676 pre-treatment (4 + 3 days) vs DMSO, then 2nd compound 72 h, IC50 shift of 2nd compound
Procedure: (§1) Cells were then equilibrated in incubators for 24 hours before treatment with a second compound. Treated assay plates were incubated with a second compound for 72 hours. After this time, plates were developed for endpoint analysis using ATPLite to measure ATP content, which is used as an indicator of cell viability.
(§2) “N/D” means that IC50 of the second compound could not be determined for both conditions.

SKM-1 cells = assay: as above; settings: SKM-1 cells; 300 nM EPZ-5676 pre-treatment (4 + 3 days) vs DMSO, then 2nd compound 72 h; ATPLite; IC50 shift of 2nd compound
Procedure: as §1, §2

MOLM-13 (MLL-AF9) cells = assay: Combination proliferation assay with Compound A2 (CellTiter-Glo, Chou-Talalay CI); settings: for Combination effect with Compound A2: MOLM-13, 7 Day Cotreatment (Example 1); for Combination effect with Compound A2 (Table 2): MOLM-13 MLL-AF9; for Combination effect with Compound A2 (Table 4): MOLM-13 (MLL-AF9), 7 Day Cotreatment Model
Procedure: (§3) The acute myelogenous leukemia cell lines MV4-11 (MLL-AF4) and MOLM-13 (MLL-AF9) were obtained from American Type Culture Collection (ATCC; Rockville, Md.) and Deutsche Sammlung von Mikroorganismen and Zellkulturen (DSMZ; Braunschweig, Germany) respectively.
(§4) Studies were performed using MLL-rearranged cell lines in vitro to evaluate the anti-proliferative effect of a combination of two agents together on cell growth. Initial proliferation studies were performed to determine the IC50 of a given compound in each cell line. The cell counts were measured by ATP quantitation using the Promega Cell Titer Glo kit and luminescence values corresponded to the amount of ATP in a given well.
(§5) Compounds were evaluated for synergy in the co-treatment phase by testing the compounds in a concentration range which was bracketed around their IC50 values. The compounds were plated to a 96 well plate in a matrix format (FIG. 3) which includes increasing concentrations of each drug in the combination in a constant ratio, in addition to the effect of each compound alone in the study. Cells were seeded and grown in the log-linear phase for 3 or 7 days in the co-treatment phase. Minimum inhibition (DMSO alone) controls were used in each plate to calculate fraction affected (Fa) of a test well. DMSO concentration was kept at 0.1% v/v.
(§6) The drug combination analysis was performed utilizing the Chou-Talalay method Synergy was determined using the software package Calcusyn by Biosoft. The combination index (CI) is a quantitative term used to describe the level of synergy or antagonism in a given test system. A combination index less than one indicates synergy, and a CI greater than one indicates antagonism. Further, strong synergism is achieved when the CI value falls below 0.3.
(§7) The HP-D300 digital dispenser (Tecan) was used to dispense compounds in a combinatorial matrix. […] Cell viability was measured via ATP content using CellTiter-Glo® (Promega).
(§8) Viability was determined using CellTiter-Glo® (Promega).
Cell viability was measured via ATP content using CellTiter-Glo® (Promega).
as §4, with “Proliferation studies” for “Studies”, “MOLM-13, MV4-11 and SKM-1” for “MLL-rearranged”, “cancer cell killing” for “anti-proliferative”, “IC50 values” for “IC50”, “correspond” for “corresponded”
(§9) These studies were performed to evaluate both the combinatorial effect of compounds on cell killing and the durability of the effect by washing out one of the agents.
(§10) Compounds evaluated for synergy in the co-treatment phase were tested in a range which was bracketed around the IC50's. The compounds were plated to a 96 well plate in a matrix format which includes increasing concentrations of each drug in the combination in a constant ratio, in addition to the effect of each compound alone in the study. Cells were seeded and grown in the log-linear phase for 3 or 7 days in the cotreatment phase. Maximum and minimum inhibition (DMSO alone) controls were used in each plate to calculate fraction affected (Fa) of a test well. DMSO concentration was kept at 0.1% v/v. The drug combination analysis was performed utilizing the Chou-Talalay method. Synergy was determined using the software package Calcusyn by Biosoft. The combination index (CI) is the term used to describe the level of synergy or antagonism in a given test system. A combination index less than one indicates synergy, and a CI greater than one indicates antagonism.
(§11) The drug combination analysis was performed using the Chou-Talalay method. Graphs representing values of combination index (CI) versus Fractional effect (Fa) known as Fa-CI plots were generated and synergy was evaluated.

MV4-11 (MLL-AF4) cells = assay: as above; settings: for Combination effect with Compound A2: 7 Day Cotreatment (Example 1); for Combination effect with Compound A2 (Table 2): MV4-11 MLL-AF4; for Combination effect with Compound A2 (Table 4): MV4-11 (MLL-AF4)
Procedure: as §3, §4, §5, §6, §7, §8
as §4, with “Proliferation studies” for “Studies”, “MOLM-13, MV4-11 and SKM-1” for “MLL-rearranged”, “cancer cell killing” for “anti-proliferative”, “IC50 values” for “IC50”, “correspond” for “corresponded”
as §9, §10
as §11, with “evaluated. Drug synergy was statistically defined by CI values less than 1, antagonism by CI>1 and additive effect by CI equal to 1.” for “evaluated.”

In the case of `Cc1cc(Cl)cc(OCCn2cc(F)cn2)c1-c1nc(N)nc2c1CN(C(=O)NCC(C)(F)F)C2` [BEP800], the “Summary of Combination Studies: MOLM-13” value (MOLM-13 cells) is reported as “Synergy (considered synergistic if the IC50 value of the second compound decreased by 2-fold or more when EPZ-5676 was added as compared to the DMSO control)”.
For `N.N.[Cl][Pt][Cl]` [Cisplatin], the “Summary of Combination Studies: MOLM-13” value (MOLM-13 cells) was “Synergy (considered synergistic if the IC50 value of the second compound decreased by 2-fold or more when EPZ-5676 was added as compared to the DMSO control)”.
With `O=c1cc(N2CCOCC2)oc2c(-c3cccc4c3sc3ccccc34)cccc12` [NU 7441] the “Summary of Combination Studies: MOLM-13” value (MOLM-13 cells) was “Synergy (considered synergistic if the IC50 value of the second compound decreased by 2-fold or more when EPZ-5676 was added as compared to the DMSO control)”.
With `O=C(c1cn(Cc2cncn2Cc2ccc(Br)cc2)cc1-c1cccc2ccccc12)N1CCOCC1` [LB42708] the “Summary of Combination Studies: MOLM-13” value (MOLM-13 cells) was “Synergy (considered synergistic if the IC50 value of the second compound decreased by 2-fold or more when EPZ-5676 was added as compared to the DMSO control)” and the “Summary of Combination Studies: SKM-1” value (SKM-1 cells) was “Synergy (considered synergistic if the IC50 value of the second compound decreased by 2-fold or more when EPZ-5676 was added as compared to the DMSO control)”.
With `CC1(C)CCC(c2ccc(Cl)cc2)=C(CN2CCN(c3ccc(C(=O)NS(=O)(=O)c4ccc(N[C@H](CCN5CCOCC5)CSc5ccccc5)c(S(=O)(=O)C(F)(F)F)c4)cc3)CC2)C1` [Navitoclax] the “Combination effect with Compound A2” value (MOLM-13 (MLL-AF9) cells) was “synergy” and the “Combination effect with Compound A2” value (MV4-11 (MLL-AF4) cells; MV4-11) was “synergy”.
With `c1ccc2c(CCNc3ccc(Nc4ccncc4)cc3)c[nH]c2c1` [JNJ 26854165] the “Summary of Combination Studies: MOLM-13” value (MOLM-13 cells) was “Synergy (considered synergistic if the IC50 value of the second compound decreased by 2-fold or more when EPZ-5676 was added as compared to the DMSO control)”.
With `CC(C)(C)c1cc(NC(=O)Nc2ccc(-c3cn4c(n3)sc3cc(OCCN5CCOCC5)ccc34)cc2)no1` [Quizartinib] the “Combination effect with Compound A2” value (MV4-11 (MLL-AF4) cells; MV4-11) was “synergy”.
In the case of `Nc1ncn([C@H]2C[C@H](O)[C@@H](CO)O2)c(=O)n1` [Decitabine], the “Combination effect with Compound A2 (Table 2)” value (“Combination effect … (Table 2)” below) (MOLM-13 (MLL-AF9) cells) is reported as “Synergy (Drug synergy was statistically defined by CI values less than 1)” and the “Combination effect … (Table 2)” value (MV4-11 (MLL-AF4) cells) is reported as “Synergy (Drug synergy was statistically defined by CI values less than 1)”.
`COc1ccc(-c2ccc3c(N4CCOCC4)nc(N4C[C@@H](C)O[C@@H](C)C4)nc3n2)cc1CO` [KU 0063794] was tested, and the “Summary of Combination Studies: MOLM-13” value (MOLM-13 cells) was “Synergy (considered synergistic if the IC50 value of the second compound decreased by 2-fold or more when EPZ-5676 was added as compared to the DMSO control)” and the “Summary of Combination Studies: SKM-1” value (SKM-1 cells) was “Synergy (considered synergistic if the IC50 value of the second compound decreased by 2-fold or more when EPZ-5676 was added as compared to the DMSO control)”.
With `COc1ccc(C2=N[C@@H](c3ccc(Cl)cc3)[C@@H](c3ccc(Cl)cc3)N2C(=O)N2CCNC(=O)C2)c(OC(C)C)c1` [Nutlin-3] the “Summary of Combination Studies: MOLM-13” value (MOLM-13 cells) was “Synergy (considered synergistic if the IC50 value of the second compound decreased by 2-fold or more when EPZ-5676 was added as compared to the DMSO control)”.
With `COc1cc2c(NC3CCN(C4CCCCC4)CC3)nc(N3CCCN(C(C)C)CC3)nc2cc1OCCCN1CCCCC1` [UNC 0646] the “Summary of Combination Studies: MOLM-13” value (MOLM-13 cells) was “Synergy (considered synergistic if the IC50 value of the second compound decreased by 2-fold or more when EPZ-5676 was added as compared to the DMSO control)” and the “Summary of Combination Studies: SKM-1” value (SKM-1 cells) was “Synergy (considered synergistic if the IC50 value of the second compound decreased by 2-fold or more when EPZ-5676 was added as compared to the DMSO control)”.
With `Cc1sc2c(c1C)C(c1ccc(Cl)cc1)=N[C@@H](CC(=O)OC(C)(C)C)c1nnc(C)n1-2` [JQ1] the “Combination effect with Compound A2 (Table 4)” value (“Combination effect … (Table 4)” below) (MOLM-13 (MLL-AF9) cells) was “Additive (additive effect by CI equal to 1)”, the “Combination effect … (Table 2)” value (MOLM-13 (MLL-AF9) cells) was “Additive (additive effect by CI equal to 1)” and the “Combination effect … (Table 4)” value (MV4-11 (MLL-AF4) cells; 7 Day Cotreatment Model) was “Additive (additive effect by CI equal to 1)”. For the same compound, the “Combination effect … (Table 2)” value (MV4-11 (MLL-AF4) cells) was “Additive (additive effect by CI equal to 1)”.
With `CCCc1cc2c(N3CCN(C4=NCC(C)(C)S4)CC3)ncnc2s1` [Menin-MLL inhibitor MI-2] the “Combination effect … (Table 4)” value (MOLM-13 (MLL-AF9) cells) was “Synergy (Drug synergy was statistically defined by CI values less than 1)” and the “Combination effect … (Table 4)” value (MV4-11 (MLL-AF4) cells; 7 Day Cotreatment Model) was “Synergy (Drug synergy was statistically defined by CI values less than 1)”.
With `Cc1cccc(-c2[nH]c(C(C)(C)C)nc2-c2ccc3c(c2)OCO3)n1` [SB-505124] the “Summary of Combination Studies: MOLM-13” value (MOLM-13 cells) was “Synergy (considered synergistic if the IC50 value of the second compound decreased by 2-fold or more when EPZ-5676 was added as compared to the DMSO control)”.
With `Clc1ccc(C2(c3ccc(-c4cn[nH]c4)cc3)CCNCC2)cc1` [AT7867] the “Summary of Combination Studies: MOLM-13” value (MOLM-13 cells) was “Synergy (considered synergistic if the IC50 value of the second compound decreased by 2-fold or more when EPZ-5676 was added as compared to the DMSO control)”.
`O=C1c2ccccc2-c2nc3nonc3nc21` [SMER 3] was tested, and the “Summary of Combination Studies: MOLM-13” value (MOLM-13 cells) was “Synergy (considered synergistic if the IC50 value of the second compound decreased by 2-fold or more when EPZ-5676 was added as compared to the DMSO control)”.
For `COc1cc2c(cc1-c1c(C)noc1C)ncc1[nH]c(=O)n([C@H](C)c3ccccn3)c12` [IBET-151], the “Combination effect … (Table 2)” value (MOLM-13 (MLL-AF9) cells) was “Synergy (Drug synergy was statistically defined by CI values less than 1)”, the “Combination effect with Compound A2” value (MV4-11 (MLL-AF4) cells; MV4-11) was “Synergy (A combination index less than one indicates synergy)” and the “Combination effect … (Table 2)” value (MV4-11 (MLL-AF4) cells) was “Synergy (Drug synergy was statistically defined by CI values less than 1)”.
For `Cn1cncc1[C@@](N)(c1ccc(Cl)cc1)c1ccc2c(c1)c(-c1cccc(Cl)c1)cc(=O)n2C` [Tipifarnib], the “Combination effect with Compound A2 (Table 5)” value (MV4-11 (MLL-AF4) cells; MV4-11, 7 Day Cotreatment Model) was “Synergy (Drug synergy was statistically defined by CI values less than 1)”.
In the case of `c1ccc([C@@H]2C[C@H]2NC2CCNCC2)cc1` [GSK-LSD1], the “Summary of Combination Studies: MOLM-13” value (MOLM-13 cells) is reported as “Synergy (considered synergistic if the IC50 value of the second compound decreased by 2-fold or more when EPZ-5676 was added as compared to the DMSO control)”.
`CC(=O)OC[C@H]1O[C@@H]([S-])[C@H](OC(C)=O)[C@@H](OC(C)=O)[C@@H]1OC(C)=O.CCP(CC)CC.[Au+]` [Auranofin] was tested, and the “Summary of Combination Studies: MOLM-13” value (MOLM-13 cells) was “Synergy (considered synergistic if the IC50 value of the second compound decreased by 2-fold or more when EPZ-5676 was added as compared to the DMSO control)”.
For `CC(=O)O/N=C1\C(=O)N(Cc2cc(Cl)ccc2Cl)c2ccc(Cl)cc21` [LDN 57444], the “Summary of Combination Studies: MOLM-13” value (MOLM-13 cells) was “Synergy (considered synergistic if the IC50 value of the second compound decreased by 2-fold or more when EPZ-5676 was added as compared to the DMSO control)”.
For `N[C@@H]1C[C@H]1c1ccccc1` (racemic) [Tranylcypromine], the “Combination effect … (Table 4)” value (MOLM-13 (MLL-AF9) cells) was “Strong Synergy”, the “Combination effect with Compound A2” value (MOLM-13 (MLL-AF9) cells) was “synergy” and the “Combination effect … (Table 4)” value (MV4-11 (MLL-AF4) cells; 7 Day Cotreatment Model) was “Synergy (Drug synergy was statistically defined by CI values less than 1)”. For the same compound, the “Combination effect with Compound A2” value (MV4-11 (MLL-AF4) cells; MV4-11) was “synergy”.
In the case of `Nc1ccccc1NC(=O)c1ccc(CNC(=O)OCc2cccnc2)cc1` [MS-275], the “Summary of Combination Studies: MOLM-13” value (MOLM-13 cells) is reported as “Synergy (considered synergistic if the IC50 value of the second compound decreased by 2-fold or more when EPZ-5676 was added as compared to the DMSO control)”.
